In patent US6864286B2, “Inhibitors of the EGF-receptor tyrosine kinase and methods for their use” (Parker Hughes Institute, priority 1998, dated 2005):
“Also recorded” adds a separate entry of the source.

Columns and labels:
MDA-MB-231 cells = test: MTT cytotoxicity assay, MDA-MB-231; assay type: cell-based; conditions: Homo sapiens, 36 hours, read-out: Cancer Cell Cytotoxicity IC50 MDA-MB-231
Procedure: In order to determine the cytotoxic activity of LFM and its analogs against breast cancer cells, cells in alpha-MEM supplemented with 10% (v/v) fetal calf serum were treated with various concentrations of the compounds for 24 hours at 37° C., washed twice in alpha-MEM, and then used in either MTT assays or in vitro invasion assays, as described hereinafter.
The cytotoxicity of various compounds against human breast cancer cell lines was analyzed using the MTT (3-[4,5-dimethylthiazol-2-yl]-2,5-diphenyl tetrazolium bromide) assay (Boehringer Mannheim Corp., Indianapolis, Ind.). Uckun F. M., et al. Clin. Cancer Res. 1998, 4, 901-912. Exponentially growing breast cancer cells were seeded into a 96-well plate at a density of 2.5×10^4 cells/well and incubated for 36 hours at 37° C. prior to drug exposure. On the day of treatment, culture medium was carefully aspirated from the wells and replaced with fresh medium containing the LFM analogs at concentrations ranging from 2 to 250 μM. Triplicate wells were used for each treatment. The cells were incubated with the various compounds for 36 hours at 37° C. in a humidified 5% CO2 atmosphere. To each well, 10 μl of MTT (0.5 mg/ml final concentration) was added and the plates were incubated at 37° C. for 4 hours to allow MTT to form formazan crystals by reacting with metabolically active cells. The formazan crystals were solubilized overnight at 37° C. in a solution containing 10% SDS in 0.01 M HCl. The absorbence of each well was measured in a microplate reader (Labsystems) at 540 nm and a reference wavelength of 690 nm.
To translate the absorbance A540 values into the number of live cells in each well, the A540 values were compared to those on standard A540-versus-cell number curves generated for each cell line. The percent survival was calculated using the formula: % survival=Live cell number[test]/Live cell number [control]×100. The IC50 values were calculated by non-linear regression analysis using an Graphpad Prism software version 2.0 (Graphpad Software, Inc., San Diego, Calif.).

HCK = target: T1, HCK (Homo sapiens, UniProt P08631); test: Cell-free HCK immune complex kinase assay; assay type: biochemical; conditions: for effect on enzymatic activity of HCK: at concentrations as high as 350 μM, HCK from transfected COS7 cells
T1 construct: expressed in transfected cells; host or cells: COS-7 simian kidney cells
T1 sequence (P08631 whole entry, species assumed): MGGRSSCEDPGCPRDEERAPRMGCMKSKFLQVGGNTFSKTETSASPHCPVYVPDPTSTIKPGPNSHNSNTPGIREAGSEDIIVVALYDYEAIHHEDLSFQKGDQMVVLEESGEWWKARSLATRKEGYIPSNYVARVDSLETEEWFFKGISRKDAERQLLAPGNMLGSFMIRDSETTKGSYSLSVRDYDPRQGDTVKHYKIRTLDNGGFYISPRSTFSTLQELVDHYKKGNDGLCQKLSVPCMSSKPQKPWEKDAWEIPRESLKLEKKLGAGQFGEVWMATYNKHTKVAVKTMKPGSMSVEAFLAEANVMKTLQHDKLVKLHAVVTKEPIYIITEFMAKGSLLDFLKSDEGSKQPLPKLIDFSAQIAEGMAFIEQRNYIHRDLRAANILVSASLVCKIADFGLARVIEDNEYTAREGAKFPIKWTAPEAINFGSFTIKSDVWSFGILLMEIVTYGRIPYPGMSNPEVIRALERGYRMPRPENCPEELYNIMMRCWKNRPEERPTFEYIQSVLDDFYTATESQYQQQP
Procedure: Immunoprecipitations, immune-complex protein kinase assays, and immunoblotting using the ECL chemiluminescence detection system (Amersham Life Sciences) were conducted as described previously (Vassilev, A., et al. J. Biol. Chem. 1998, in press; Goodman, P. A., et al. J. Biol. Chem. 1998, 273, 17742; Mahajan, S., et al. Mol. Cell. Biol. 1995, 15, 5304; Uckun, F. M., et al. Science 1996, 22, 1096).
For HCK kinase assays, we used HCK-transfected COS-7 cells. The cloning and expression of HCK in COS-7 cells has been described previously (Saouaf, S. J., et al. J. Biol. Chem. 1995, 270, 27072). The pSV7c-HCK plasmid was transfected into 2×10^6 COS-7 cells using Lipofectamine (GIBCO/BRL), and the cells were harvested 48 hours later. The cells were lysed in NP-40 buffer and HCK was immunoprecipitated from the whole cell lysates with an anti-HCK antibody.

[1] = tested on: MDA-MB-231 breast cancer cells; test: Flow cytometric apoptosis assay (MC540 binding / PI permeability); assay type: cell-based, human; conditions: for Apoptotic fraction [AF] with MC540+/PI+ advanced stage apoptosis: 24 hours
Source text: Loose packing of membrane phospholipid head groups and cell shrinkage precede DNA fragmentation in apoptotic cells, thereby providing MC540 binding as an early marker for apoptosis (Uckun F. M., et al. Clin. Cancer Res. 1998, 4, 901-912; and Kuo, E. A. J. Med. Chem. 1996, 39, 4608-4621). Plasma membrane permeability to propidium iodide (PI, Sigma) develops at a later stage of apoptosis (Uckun F. M., et al. Clin. Cancer Res. 1998, 4, 901-912; and Kuo, E. A. J. Med. Chem. 1996, 39, 4608-4621). MC540 binding and PI permeability were simultaneously measured in breast cancer cells 24 hours after exposure to leflunomide analogs, as described (Uckun F. M., et al. Clin. Cancer Res. 1998, 4, 901-912. Stock solutions of MC540 and PI, each at 1 mg/mL, were passed through a 0.22 μm filter and stored at 4° C. in the dark. Shortly before analysis, suspensions containing 1×10^6 cells were suspended in 5 μg/mL MC540 and 10 μg/mL PI and kept in the dark at 4° C. Whole cells were analyzed with a FACS Calibur or FACS Vantage flow cytometer (Becton Dickinson, San Jose, Calif.). All analyses were done using 488 nm excitation from an argon laser. MC540 and PI emissions were split with a 600 nm short pass dichroic mirror and a 575 nm band pass filter was placed in front of one photomultiplier tube to measure MC540 emission and a 635 nm band pass filter was used for PI emission.
Loose packing of membrane phospholipid head groups and cell shrinkage precede DNA fragmentation in apoptotic cells, thereby providing MC540 binding as an early marker for apoptosis (Uckun, F. M. et al., Science, 1995, 267, 886-891). MC540 binding and propidium iodide (PI) permeability of MDA-MB-231 breast cancer cells were simultaneously measured before and after a 24 hour treatment with 100 μM or 500 μM LFM-A12. Whole cells were analyzed with a FACStar Plus flow cytometer (Becton Dickinson, San Jose, Calif.).

Which results are given for `CC(O)=C(C#N)C(=O)Nc1ccc(C(F)(F)F)cc1` [LFM, α-Cyano-β-hydroxy-β-methyl-N-[4-(trifluoromethyl)phenyl]-propenamide, reference compound]?
IC50 (MDA-MB-231 cells): 199 µM; effect on enzymatic activity of HCK (HCK): did not affect the enzymatic activity; also recorded: lack of inhibition; induction of apoptosis ([1]; MDA-MB-231, 24 hours): albeit to a lesser extent, also induced apoptosis

For `C/C(O)=C(\C#N)C(=O)Nc1ccc(OC(F)(F)F)cc1` [LFM-A12, α-Cyano-β-hydroxy-β-methyl-N-[4-(trifluoromethoxy)phenyl]-propenamide], which IC50 (MDA-MB-231 cells) is on record?
The IC50 was 53.4 µM.

What about the IC50 (HCK; HCK, cell-free, read-out: Inhibition IC50) of the same compound?
The IC50 was > 350 µM.

What about the “effect on enzymatic activity of HCK” value (HCK) of the same compound?
Its value is “did not affect the enzymatic activity; also recorded: lack of inhibition”.

And the “Apoptotic fraction [AF] with MC540+/PI+ advanced stage apoptosis” value ([1]; MDA-MB-231, 100 μM)?
Its value is 54%.

And the “Apoptotic fraction [AF] with MC540+/PI+ advanced stage apoptosis” value ([1]; MDA-MB-231, 500 μM)?
The value was 85%.
